This data set concerns rodent lifetime carcinogenesis bioassay, tumor incidence TD50. As to the kind of experiment: chronic cancer bioassays in animals – CPDB, compiled studies (AID 1745844).

Calls of active or inactive are those of the source. How the calls were made is not given here.

As a reminder, the TD50 is the dose at which the toxic effect under study appears in half of the subjects.

Consider `CC(=O)CN(N=O)C(N)=O`, for which the TD50 runs as follows: (hamster, strain Syrian Golden, females, by gavage, site: spleen, lesion: all vascular tumors, dosed 40 weeks, study length 55 weeks) 0.121 mg/kg/day; (hamster, strain Syrian Golden, males, by gavage, site: spleen, lesion: hemangiosarcoma, dosed 40 weeks, study length 75 weeks) 0.14 mg/kg/day; (rat, strain Fischer 344, females, by gavage, site: kidney, lesion: mesenchymal neoplasm, dosed 30 weeks, study length 104 weeks) 0.32 mg/kg/day; (rat, strain Fischer 344, females, by gavage, site: liver, lesion: one or several types, types not named, dosed 30 weeks, study length 104 weeks) 4.04 mg/kg/day; (rat, strain Fischer 344, males, by gavage, site: kidney, lesion: mesenchymal neoplasm, dosed 30 weeks, study length 104 weeks) 0.456 mg/kg/day.
Turning to `CNC(=O)c1c(N(C)N=O)ncn1C`, the TD50 is, setting by setting: (rat, strain BD IX, both sexes, in drinking water, site: nasal cavity, olfactory epithelium, lesion: neuroepithelioma, dosed 73 weeks, study length 79 weeks) 1.03 mg/kg/day; (rat, strain BD IX, both sexes, in drinking water, site: nasal cavity, lesion: several types, types named in the paper, dosed 73 weeks, study length 79 weeks) 1 mg/kg/day; (rat, strain BD IX, both sexes, in drinking water, site: nasal cavity, lesion: squamous-cell carcinoma, dosed 73 weeks, study length 79 weeks) 5.56 mg/kg/day.
With `O=C(C1CCCCC1)N1CC(=O)N2CCc3ccccc3C2C1` (stereo not drawn), under “hamster, strain Syrian Golden, females, by gavage, site: any site (literature study), lesion: several types, types named in the paper, dosed 80 weeks, study length 80 weeks”, the TD50 is 250 mg/kg/day (inactive). The carcinogen call is “negative (inactive)” (hamster, strain Syrian Golden, males, by gavage, site: any site (literature study), lesion: several types, types named in the paper, dosed 80 weeks, study length 80 weeks); “negative (inactive)” (rat, strain Sprague-Dawley, females, by gavage, site: any site (literature study), lesion: several types, types named in the paper, dosed 104 weeks, study length 130 weeks); “negative (inactive)” (rat, strain Sprague-Dawley, males, by gavage, site: any site (literature study), lesion: several types, types named in the paper, dosed 104 weeks, study length 130 weeks).
For `CC(Cl)(Cl)Cl`, the TD50 runs as follows: (mouse, strain B6C3F1, females, by gavage, site: lung, lesion: alveolar/bronchiolar adenoma + alveolar/bronchiolar carcinoma, dosed 78 weeks, study length 90 weeks) 260000 mg/kg/day; (mouse, strain B6C3F1, males, by gavage, site: any site (literature study), lesion: several types, types named in the paper, dosed 78 weeks, study length 90 weeks) 30500 mg/kg/day; (mouse, strain B6C3F1, males, by gavage, site: liver, lesion: hepatocellular adenoma + hepatocellular carcinoma + neoplastic nodule, dosed 78 weeks, study length 90 weeks) 39700 mg/kg/day; (mouse, strain B6C3F1, males, by gavage, site: lung, lesion: alveolar/bronchiolar adenoma + alveolar/bronchiolar carcinoma, dosed 78 weeks, study length 90 weeks) 5.08e+06 mg/kg/day; (mouse, strain B6C3F1, males, inhaled, site: liver, lesion: hepatocellular carcinoma, dosed 104 weeks, study length 104 weeks) 66300 mg/kg/day (inactive); (rat, strain Fischer 344, males, inhaled, site: liver, lesion: hepatocellular carcinoma, dosed 104 weeks, study length 104 weeks) 2070 mg/kg/day (inactive). The TD50 by setting is: (rat, strain Fischer 344, males, inhaled, site: liver, lesion: neoplastic nodule, dosed 104 weeks, study length 104 weeks) 5120 mg/kg/day (inactive); (rat, strain Osborne-Mendel, females, by gavage, site: any site (literature study), lesion: several types, types named in the paper, dosed 78 weeks, study length 112 weeks) 226 mg/kg/day; (rat, strain Osborne-Mendel, males, by gavage, site: any site (literature study), lesion: several types, types named in the paper, dosed 78 weeks, study length 106 weeks) 950 mg/kg/day. The carcinogen call runs as follows: (mouse, strain B6C3F1, females, inhaled, site: liver, lesion: hepatocellular adenoma, dosed 104 weeks, study length 104 weeks) “negative (inactive)”; (mouse, strain B6C3F1, females, inhaled, site: liver, lesion: hepatocellular carcinoma, dosed 104 weeks, study length 104 weeks) “negative (inactive)”; (mouse, strain B6C3F1, females, inhaled, site: liver, lesion: several types, types named in the paper, dosed 104 weeks, study length 104 weeks) “negative (inactive)”; (mouse, strain B6C3F1, males, inhaled, site: liver, lesion: hepatocellular adenoma, dosed 104 weeks, study length 104 weeks) “negative (inactive)”; (mouse, strain B6C3F1, males, inhaled, site: liver, lesion: several types, types named in the paper, dosed 104 weeks, study length 104 weeks) “negative (inactive)”; (rat, strain Fischer 344, females, inhaled, site: liver, lesion: hepatocellular carcinoma, dosed 104 weeks, study length 104 weeks) “negative (inactive)”. Besides, under “rat, strain Fischer 344, females, inhaled, site: liver, lesion: neoplastic nodule, dosed 104 weeks, study length 104 weeks”, the carcinogen call is “negative (inactive)”.
As to `CCOc1ccc(NC(C)=O)cc1[N+](=O)[O-]`, the carcinogen call was “negative (inactive)” (mouse, strain B6C3F1, females, in feed, site: any site (literature study), lesion: several types, types named in the paper, dosed 78 weeks, study length 97 weeks); “negative (inactive)” (rat, strain Fischer 344, females, in feed, site: any site (literature study), lesion: several types, types named in the paper, dosed 78 weeks, study length 106 weeks); “negative (inactive)” (rat, strain Fischer 344, males, in feed, site: any site (literature study), lesion: several types, types named in the paper, dosed 78 weeks, study length 105 weeks). The TD50 reads like this: (mouse, strain B6C3F1, females, in feed, site: lung, lesion: alveolar/bronchiolar adenoma + alveolar/bronchiolar carcinoma, dosed 78 weeks, study length 97 weeks) 30800 mg/kg/day; (mouse, strain B6C3F1, males, in feed, site: any site (literature study), lesion: several types, types named in the paper, dosed 78 weeks, study length 98 weeks) 3490 mg/kg/day; (mouse, strain B6C3F1, males, in feed, site: liver, lesion: hepatocellular adenoma + hepatocellular carcinoma + neoplastic nodule, dosed 78 weeks, study length 98 weeks) 2270 mg/kg/day; (mouse, strain B6C3F1, males, in feed, site: liver, lesion: hepatocellular adenoma + hepatocellular carcinoma, dosed 78 weeks, study length 98 weeks) 2270 mg/kg/day; (rat, strain Fischer 344, females, in feed, site: liver, lesion: hepatocellular adenoma + hepatocellular carcinoma + neoplastic nodule, dosed 78 weeks, study length 106 weeks) 6240 mg/kg/day.
With `CCOc1ccc(NC(N)=O)cc1`, the TD50 (rat, strain Osborne-Mendel, both sexes, in feed, site: liver, lesion: several types, types named in the paper, dosed 104 weeks, study length 104 weeks) is 537 mg/kg/day.
For the molecule `Cc1ccc2c(-c3ccccc3)nc(=O)n(C(C)C)c2c1`, the carcinogen call is “negative (inactive)” (mouse, strain Charles River CD1, females, in feed, site: liver, lesion: hemangioendothelial sarcoma, dosed 86 weeks, study length 86 weeks); “negative (inactive)” (mouse, strain Charles River CD1, females, in feed, site: liver, lesion: hepatocellular carcinoma, dosed 86 weeks, study length 86 weeks); “negative (inactive)” (mouse, strain Charles River CD1, females, in feed, site: lung, lesion: alveolar/bronchiolar adenoma, dosed 86 weeks, study length 86 weeks); “negative (inactive)” (mouse, strain Charles River CD1, females, in feed, site: lung, lesion: alveolar/bronchiolar carcinoma, dosed 86 weeks, study length 86 weeks); “negative (inactive)” (mouse, strain Charles River CD1, males, in feed, site: lung, lesion: alveolar/bronchiolar carcinoma, dosed 86 weeks, study length 86 weeks). The TD50 (mouse, strain Charles River CD1, females, in feed, site: liver, lesion: hemangioma, dosed 86 weeks, study length 86 weeks) is 48700 mg/kg/day (inactive); the TD50 (mouse, strain Charles River CD1, males, in feed, site: liver, lesion: hemangioma, dosed 86 weeks, study length 86 weeks) was 14000 mg/kg/day (inactive); the TD50 (mouse, strain Charles River CD1, males, in feed, site: liver, lesion: hepatocellular carcinoma, dosed 86 weeks, study length 86 weeks) is 4350 mg/kg/day (inactive); the TD50 (mouse, strain Charles River CD1, males, in feed, site: lung, lesion: alveolar/bronchiolar adenoma, dosed 86 weeks, study length 86 weeks) is 5450 mg/kg/day (inactive).
`O=NN1C[C@H](O)C[C@H]1C(=O)O`: where the note is “rat, strain MRC, females, in drinking water, site: any site (literature study), lesion: several types, types named in the paper, dosed 75 weeks, study length 104 weeks”, the TD50 is 3.84 mg/kg/day (inactive). Also, the carcinogen call (rat, strain MRC, males, in drinking water, site: any site (literature study), lesion: several types, types named in the paper, dosed 75 weeks, study length 104 weeks) is “negative (inactive)”.
In the case of `CCCCCCc1ccc(O)cc1O`, the carcinogen call was “negative (inactive)” (mouse, strain B6C3F1, females, by gavage, site: any site (literature study), lesion: several types, types named in the paper, dosed 102 weeks, study length 104 weeks) and “negative (inactive)” (rat, strain Fischer 344, females, by gavage, site: any site (literature study), lesion: several types, types named in the paper, dosed 103 weeks, study length 104 weeks). Besides, the TD50 runs as follows: (mouse, strain B6C3F1, males, by gavage, site: Harderian gland, lesion: adenoma, NOS + carcinoma, NOS, dosed 102 weeks, study length 104 weeks) 368 mg/kg/day; (mouse, strain B6C3F1, males, by gavage, site: adrenal medulla, lesion: pheochromocytoma, dosed 102 weeks, study length 104 weeks) 519 mg/kg/day; (rat, strain Fischer 344, females, by gavage, site: liver, lesion: hepatocellular adenoma + hepatocellular carcinoma + neoplastic nodule, dosed 103 weeks, study length 104 weeks) 128000 mg/kg/day; (rat, strain Fischer 344, males, by gavage, site: any site (literature study), lesion: several types, types named in the paper, dosed 103 weeks, study length 104 weeks) 615 mg/kg/day (inactive); (rat, strain Fischer 344, males, by gavage, site: liver, lesion: hepatocellular adenoma + hepatocellular carcinoma + neoplastic nodule, dosed 103 weeks, study length 104 weeks) 1530 mg/kg/day.
Turning to `N#[N+]c1cc(CCN)ccc1[O-]`, the TD50 (rat, strain F344/DuCrj, males, in drinking water, site: oral cavity, lesion: squamous-cell carcinoma, dosed 116 weeks, study length 116 weeks) was 37.6 mg/kg/day.
Consider `[S-]c1nc2ccccc2s1.[S-]c1nc2ccccc2s1.[Zn+2]`, for which the carcinogen call runs as follows: (mouse, strain B6AKF1, females, oral dosing, site: any site (literature study), lesion: several types, types named in the paper, dosed 76 weeks, study length 76 weeks) “negative (inactive)”; (mouse, strain B6AKF1, females, oral dosing, site: liver, lesion: hepatoma, dosed 76 weeks, study length 76 weeks) “negative (inactive)”; (mouse, strain B6AKF1, females, oral dosing, site: lung, lesion: adenoma, dosed 76 weeks, study length 76 weeks) “negative (inactive)”; (mouse, strain B6AKF1, males, oral dosing, site: any site (literature study), lesion: several types, types named in the paper, dosed 76 weeks, study length 76 weeks) “negative (inactive)”; (mouse, strain B6AKF1, males, oral dosing, site: liver, lesion: hepatoma, dosed 76 weeks, study length 76 weeks) “negative (inactive)”; (mouse, strain B6AKF1, males, oral dosing, site: lung, lesion: adenoma, dosed 76 weeks, study length 76 weeks) “negative (inactive)”. The carcinogen call was “negative (inactive)” (mouse, strain B6C3F1, females, oral dosing, site: liver, lesion: hepatoma, dosed 76 weeks, study length 76 weeks) and “negative (inactive)” (mouse, strain B6C3F1, females, oral dosing, site: lung, lesion: several types, types named in the paper, dosed 76 weeks, study length 76 weeks). Further, the TD50 is 2790 mg/kg/day (inactive) (mouse, strain B6C3F1, females, oral dosing, site: any site (literature study), lesion: several types, types named in the paper, dosed 76 weeks, study length 76 weeks); 319 mg/kg/day (inactive) (mouse, strain B6C3F1, males, oral dosing, site: any site (literature study), lesion: several types, types named in the paper, dosed 76 weeks, study length 76 weeks); 388 mg/kg/day (inactive) (mouse, strain B6C3F1, males, oral dosing, site: liver, lesion: hepatoma, dosed 76 weeks, study length 76 weeks); 2750 mg/kg/day (inactive) (mouse, strain B6C3F1, males, oral dosing, site: lung, lesion: adenoma, dosed 76 weeks, study length 76 weeks).
